Patent US7888380B2, “1,2,4-Triazolylaminoaryl (heteroaryl) sulfonamide derivatives” (Janssen Pharmaceutica, N.V., priority 2004, dated 2011)
Read-outs that look alike come from different tables or passages of the source.

Tests used:
[1] = test system: HeLa cervical adenocarcinoma; assay: Inhibition of cell proliferation (14C-thymidine incorporation), HeLa; type: cell-based; conditions: Homo sapiens
Experimental: The ability of a test compound to inhibit the proliferation of cell growth was determined by measuring incorporation of ^14C-labelled thymidine into newly synthesized DNA within the cells. This method was used on cell lines derived from carcinomas originating from several tissues such as HeLa cervical adenocarcinoma (American Type Culture Collection (ATCC), Virginia, Cat. #CCL-2), A375 malignant melanoma (ATCC CRL-1619), and HCT-116 colon carcinoma (CCL-247). In this way the effect of a compound on cell growth of cells with many different phenotypes can be determined. Cells were trypsinized and counted and 3000-8000 cells were added to each well of a 96-well CytoStar tissue culture treated scintillating microplate (Amersham #RPNQ0160) in complete medium in a volume of 100 μl. Cells were incubated for 24 hours in complete medium at 37° C. in an atmosphere containing 5% CO2.
Next, 1 μl of test compound in 100% DMSO was added to the wells of the plate. DMSO only was added to control wells. Cells were incubated for 24 more hours in complete medium at 37° C. in an atmosphere containing 5% CO2. Methyl ^14C-thymidine 56 mCi/mmol (NEN #NEC568 or Amersham #CFA532) was diluted in complete medium and 0.2 uCi/well was added to each well of the CytoStar plate in a volume of 20 ul. The plate was incubated for 24 hours at 37° C. plus 5% CO2 in drug plus ^14C-thymidine. The contents of the plate were discarded into a ^14C radioactive waste container by inverting the plate and the plate was washed twice with 200 μl PBS.
200 μl of PBS was added to each well. The top of the plate was sealed with a transparent plate sealer and a white plate backing sealer (Packard #6005199) was applied to the bottom of the plate. The degree of methyl ^14C-thymidine incorporation was quantified on a Packard Top Count.

CDK1:Cyclin-B = biological target: T1, CDK1:Cyclin-B (Homo sapiens, UniProt P06493); assay: CDK1 Screening Assay (33P-ATP FlashPlate); type: biochemical; conditions: 10 μM ATP; >10 or >100 = less than 50% inhibition at highest concentration tested
T1 construct: purchased New England Biolabs, Beverly, Mass; 6020; host or cells: insect cells
Experimental: A kinase reaction mixture was prepared containing 50 mM Tris-HCl pH=8, 10 mM MgCl2, 0.1 mM Na3PO4, 1 mM DTT, 10 μM ATP, 0.025 μM biotinylated histone-H1 peptide substrate and 0.2 μCuries per well ^33P-γ-ATP (2000-3000 Ci/mmol). 70 μL of the kinase reaction mixture was dispensed into each well of a streptavidin coated FlashPlate™ (Cat. # SMP103, NEN, Boston, Mass.). Then 1 μL of test compound stock in 100% DMSO was added to the wells resulting in a final concentration of 1% DMSO in the reaction with a 100 μl final reaction volume.
Next, CDK1:Cyclin-B protein was diluted in 50 mM Tris-HCl pH=8.0, 0.1% BSA at a concentration of 1 ng per μL and 30 μL (30 ng enzyme per test well) was added to each well to initiate the reaction. The reaction was incubated for one hour at 30° C. At the end of the 1 h incubation, the reaction was terminated by aspirating the mixture from the plate and washing the wells twice with PBS containing 100 mM EDTA. The histone-H1 biotinylated peptide substrate became immobilized on the Flashplate™ and the incorporation of ^33P-γ-ATP was measured by reading the plate on a scintillation counter. Inhibition of the enzymatic activity of CDK1 was measured by observing a reduced amount of ^33P-γ-ATP incorporated into the immobilized peptide.
VEGF-R (vascular endothelial growth factor receptor-2) is a fusion protein containing a polyhistidine tag at the N-terminus followed by amino acids 786-1343 of the rat VEGF-R2 kinase domain (GenBank Accession #U93306). CDK1 (cyclin dependent kinase 1) was isolated from insect cells expressing both the human CDK1 catalytic subunit and its positive regulatory subunit cyclin B (New England Biolabs, Beverly, Mass., Cat. # 6020). CDK2 in complex with cyclin A is commercially available (Upstate Biotech, Lake Placid, N.Y.). The HER2 (human epidermal growth factor receptor-2) construct contains a polyhistidine tag at the N-terminus followed by 24 additional amino acids and begins at amino acid 676 followed by the remainder of the HER2 cytoplasmic domain.

[2] = Standard Rat Pharmacokinetics (PK); type: in vivo; conditions: for bioavailability: plasma, rat, Dose(IV)*AUC(oral)/Dose(oral)*AUC(IV); for Cmax: rat plasma
Experimental: The conversion of prodrug to active form was evaluated using a standard rat PK protocol. The following procedure may be followed.
Rats were dosed intravenously (IV) at the level of 1.5-3 mg/kg and by oral gavage (PO) at the level of 10-30 mg/kg with prodrug candidate. For each study, four rats were used for IV dosing and four rats were used for PO dosing. Prodrug was typically formulated for IV dosing as a solution in 10% W/V solutol in 5% dextrose in sterile water vehicle (D5W). Prodrug was typically formulated for oral dosing as a uniform suspension in 0.5% methylcellulose vehicle. Blood samples (0.5 mL) were collected into heparinized tubes post dose via orbital sinus puncture. For IV dosing, blood samples were collected at 5, 15 and 30 mins, 1, 2, 4, 6, 8, and 24 hrs after the dosing. For PO dosing, blood samples were collected at 30 mins, 1, 2, 4, 6, 8 and 24 hrs. Blood samples were centrifuged for cell removal, and precisely 200 μL of plasma supernatant was then transferred to a clean vial, placed on dry ice, and subsequently stored in a −70° C. freezer prior to analysis. Results were calculated by WinNonlin Pro version 3.1. Plasma levels were determined and the oral and intravenous area under the concentration vs. time curve (AUC) were compared to determine the % bioavailability (% F) by the following formula: Dose(IV)*AUC(oral)/Dose (oral)*AUC(IV).

[3] = IV 2 mg/kg of prodrug, read-out: Prodrug Cmax (μM) IV
[4] = PO 10 mg/kg of prodrug, read-out: Prodrug Cmax (μM) PO
[5] = IV 3 mg/kg of prodrug, read-out: Prodrug Cmax (μM) IV
[6] = PO 30 mg/kg of prodrug, read-out: Prodrug Cmax (μM) PO

T1 sequence (P06493 whole entry): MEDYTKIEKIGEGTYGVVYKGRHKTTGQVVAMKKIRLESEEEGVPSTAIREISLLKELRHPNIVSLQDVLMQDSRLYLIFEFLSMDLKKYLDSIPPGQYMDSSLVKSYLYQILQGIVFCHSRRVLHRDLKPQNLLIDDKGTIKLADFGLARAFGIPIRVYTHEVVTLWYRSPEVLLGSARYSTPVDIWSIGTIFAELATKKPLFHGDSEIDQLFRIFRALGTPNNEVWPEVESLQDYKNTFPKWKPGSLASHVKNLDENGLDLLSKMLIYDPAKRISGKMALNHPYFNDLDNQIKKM
T1 sequence (P14635 whole entry partner): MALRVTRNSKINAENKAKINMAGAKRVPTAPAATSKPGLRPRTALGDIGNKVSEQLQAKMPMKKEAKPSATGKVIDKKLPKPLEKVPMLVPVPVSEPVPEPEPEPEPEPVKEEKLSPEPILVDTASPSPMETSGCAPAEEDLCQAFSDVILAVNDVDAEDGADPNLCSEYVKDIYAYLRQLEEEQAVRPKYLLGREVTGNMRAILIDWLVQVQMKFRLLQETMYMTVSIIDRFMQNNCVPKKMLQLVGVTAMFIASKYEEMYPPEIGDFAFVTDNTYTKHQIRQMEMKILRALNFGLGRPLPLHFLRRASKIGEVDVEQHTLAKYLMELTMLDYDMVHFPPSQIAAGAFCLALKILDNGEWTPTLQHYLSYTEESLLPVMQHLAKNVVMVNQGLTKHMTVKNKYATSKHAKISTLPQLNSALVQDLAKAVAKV

SMILES | IC50 [1] [µM] | IC50 (CDK1:Cyclin-B) [µM] | bioavailability ([2]; IV/PO 2/10 mg/kg) [%] | Cmax [2, 3] [µM] | Cmax [2, 4] [µM] | bioavailability ([2]; IV/PO 3/30 mg/kg) [%] | Cmax [2, 5] [µM] | Cmax [2, 6] [µM]
C[C@@H](N)C(=O)NS(=O)(=O)c1ccc(Nc2nc(N)n(C(=O)c3c(F)cccc3F)n2)cc1 [Compound 14, 4-[5-amino-1-(2,6-difluoro-benzoyl)-1H-[1,2,4]triazol-3-ylamino]-N—((R)-2-amino-propionyl)-benzenesulfonamide] | 1.96 | 0.74 | 1 | 11 | 0.08 |  |  | 
C[C@H](N)C(=O)N[C@@H](C)C(=O)NS(=O)(=O)c1ccc(Nc2nc(N)n(C(=O)c3c(F)cccc3F)n2)cc1.O=C(O)C(F)(F)F.O=C(O)C(F)(F)F.O=C(O)C(F)(F)F [Compound 15, (S)-2-amino-N—((S)-2-{4-[5-amino-1-(2,6-difluoro-benzoyl)-1H-[1,2,4]triazol-3-ylamino]-benzenesulfonylamino}-1-methyl-2-oxo-ethyl)-propionamide 3 TFA salt] | 1.04 | 1.36 | 0 | 31.8 | 0.167 |  |  | 
Nc1nc(Nc2ccc(S(=O)(=O)NC(=O)[C@@H]3CCCN3)cc2)nn1C(=O)c1c(F)cccc1F [Compound 16, 4-[5-amino-1-(2,6-difluoro-benzoyl)-1H-[1,2,4]triazol-3-ylamino]-N—((S)-pyrrolidine-2-carbonyl)-benzenesulfonamide] | 10.2 | 0.23 | 0 | 1.8 |  |  |  | 
Nc1nc(Nc2ccc(S(=O)(=O)NC(=O)[C@@H](N)CC(=O)O)cc2)nn1C(=O)c1c(F)cccc1F [Compound 17, (S)-3-amino-4-{4-[5-amino-1-(2,6-difluoro-benzoyl)-1H-[1,2,4]triazol-3-ylamino]-benzenesulfonylamino}-4-oxo-butyric acid] | 58.3 | 0.98 | 0 | 18.3 | 0.1 |  |  | 
CCCCC(=O)NS(=O)(=O)c1ccc(Nc2nc(N)n(C(=O)c3c(F)cccc3F)n2)cc1 [Compound 18, 4-[5-amino-1-(2,6-difluoro-benzoyl)-1H-[1,2,4]triazol-3-ylamino]-N-pentanoyl-benzenesulfonamide] | 81.2 | 1.93 |  |  |  | 0.4 | 134 | 0.41
CCCC(=O)NS(=O)(=O)c1ccc(Nc2nc(N)n(C(=O)c3c(F)cccc3F)n2)cc1 [Compound 19, 4-[5-amino-1-(2,6-difluoro-benzoyl)-1H-[1,2,4]triazol-3-ylamino]-N-butyryl-benzenesulfonamide] | 6.89 | 0.28 |  |  |  | 0.41 | 127 | 0.27
